Test results as given in ChEMBL document CHEMBL3813664, “Synthesis and evaluation of biphenyl derivatives as potential downregulators of VEGF protein secretion and telomerase-related gene expressions” (Bioorg Med Chem, 2016).
Values after ≈ are worked out from the molar mass of the structure shown.

Key:
[1] = Therapeutic index, ratio of IC50 for HEK293 cells to IC50 for human MCF7 cells; format: cell-based; conditions: HEK293 cells versus MCF7 cells, read-out: Ratio IC50
[2] = system: HT-29; test: Downregulation of VEGFA-165 secretion in human HT-29 cells assessed as protein secretion levels at 3 ug/ml after 72 hrs by ELISA relative to control; format: functional
[3] = system: HT-29; test: Cytotoxicity against human HT-29 cells assessed as reduction in cell growth after 3 days by MTT assay; format: functional, cell-based; conditions: HT-29, 72 h
[4] = system: HEK293; test: Cytotoxicity against HEK293 cells assessed as reduction in cell growth after 3 days by MTT assay; format: cell-based; conditions: Homo sapiens, HEK293, 72 h
[5] = system: HT-29; test: Downregulation of VEGFA gene expression in human HT-29 cells assessed as gene expression levels at 3 ug/ml after 48 hrs by RT-qPCR analysis relative to control; format: functional
[6] = system: HT-29; test: Downregulation of TERT gene expression in human HT-29 cells assessed as gene expression levels at 3 ug/ml after 48 hrs by RT-qPCR analysis relative to control; format: functional
[7] = Therapeutic index, ratio of IC50 for HEK293 cells to IC50 for human HT-29 cells; format: cell-based; conditions: HEK293 cells versus HT-29 cells, read-out: Ratio IC50
[8] = system: MCF7; test: Cytotoxicity against human MCF7 cells assessed as reduction in cell growth after 3 days by MTT assay; format: functional, cell-based; conditions: MCF7, 72 h
[9] = system: HT-29; test: Downregulation of c-Myc gene expression in human HT-29 cells assessed as gene expression levels at 3 ug/ml after 48 hrs by RT-qPCR analysis relative to control; format: functional

SMILES | selectivity ratio [1] | Activity [2] [%] | IC50 [3] [µg/mL] | IC50 [4] [µg/mL] | Activity [5] [%] | Activity [6] [%] | selectivity ratio [7] | IC50 [8] [µg/mL] | Activity [9] [%]
Oc1ccccc1-c1ccccc1O | 1 | 57 | 2.5 (≈ 13.4 µM) | 57 (≈ 306 µM) | 23 | 3 | 23 | 60 (≈ 322 µM) | 18
COc1ccc(-c2ccccc2)c(OC)c1 | < 0.3 |  | 55.2 (≈ 258 µM) | 27 (≈ 126 µM) |  |  | 0.5 | > 100 | 
COc1ccc(-c2cccc(N)c2)c(OC)c1 | < 0.3 |  | 49 (≈ 214 µM) | 29.2 (≈ 127 µM) |  |  | 0.6 | > 100 | 
Nc1ccc(-c2ccccc2O)cc1 | 0.6 |  | 27.3 (≈ 147 µM) | 31 (≈ 167 µM) |  |  | 1.2 | 52 (≈ 281 µM) | 
Oc1ccc(-c2ccc(O)cc2)cc1 | 0.3 |  | 13.9 (≈ 74.6 µM) | 5.1 (≈ 27.4 µM) |  |  | 0.4 | 17.8 (≈ 95.6 µM) | 
Oc1ccc(-c2ccccc2O)cc1 |  | 62 | 1.4 (≈ 7.52 µM) | 54 (≈ 290 µM) | 16 | 11 | 38 | > 100 | 11
Oc1cccc(-c2ccccc2O)c1 |  | 57 | 5.2 (≈ 27.9 µM) | > 100 | 10 | 18 | > 19 | > 100 | 87
COc1ccccc1-c1ccccc1 | 33 |  | 51 (≈ 277 µM) | 52 (≈ 282 µM) |  |  | 1 | 1.6 (≈ 8.68 µM) | 
COc1ccccc1-c1ccc(O)cc1 | 0.8 |  | 49 (≈ 245 µM) | 44 (≈ 220 µM) |  |  | 0.9 | 55 (≈ 275 µM) | 
Nc1ccccc1-c1cccc(O)c1 | 0.7 | 48 | 9.2 (≈ 49.7 µM) | 10.5 (≈ 56.7 µM) | 54 | 77 | 1.1 | 16 (≈ 86.4 µM) | 38
COc1ccc(-c2ccccc2)cc1OC | 0.6 |  | 41 (≈ 191 µM) | 26 (≈ 121 µM) |  |  | 0.6 | 45 (≈ 210 µM) | 
COc1ccc(-c2ccccc2O)cc1OC | 0.4 |  | > 100 | 23 (≈ 99.9 µM) |  |  | < 0.2 | 55 (≈ 239 µM) | 
COc1ccc(-c2cccc(O)c2)cc1OC | 0.5 |  | 29 (≈ 126 µM) | 23.1 (≈ 100 µM) |  |  | 0.8 | 48 (≈ 208 µM) | 
Nc1cccc(-c2ccccc2)c1 | 0.9 |  | 42 (≈ 248 µM) | 54 (≈ 319 µM) |  |  | 1.3 | 60 (≈ 355 µM) | 
COc1ccc(-c2ccccc2)cc1 | < 0.2 |  | 45 (≈ 244 µM) | 17 (≈ 92.3 µM) |  |  | 0.4 | > 100 | 
Nc1ccc(-c2ccc(O)cc2)cc1 | 1.2 |  | 56 (≈ 302 µM) | 62 (≈ 335 µM) |  |  | 1.1 | 49.9 (≈ 269 µM) | 
Nc1ccc(-c2ccccc2)cc1 [BIPHENYL-4-AMINE] | > 69 |  | > 100 | > 100 |  |  |  | 1.4 (≈ 8.27 µM) | 

SMILES | selectivity ratio [1] | Activity [2] [%] | IC50 [3] [µg/mL] | IC50 [4] [µg/mL] | Activity [5] [%] | Activity [6] [%] | selectivity ratio [7] | IC50 [8] [µg/mL] | Activity [9] [%]
COc1cccc(-c2ccccc2O)c1 | 0.9 |  | 35 (≈ 175 µM) | 39 (≈ 195 µM) |  |  | 1.1 | 43 (≈ 215 µM) | 
COc1ccc(-c2ccc(N)cc2)cc1OC | 4 | 48 | 2 (≈ 8.72 µM) | 23 (≈ 100 µM) | 48 | 100 | 12 | 5.5 (≈ 24 µM) | 92
Nc1cccc(-c2ccc(O)cc2)c1 | > 15 | 55 | 5.4 (≈ 29.2 µM) | > 100 | 42 | 78 | > 18 | 6.5 (≈ 35.1 µM) | 39
COc1ccc(-c2ccc(N)cc2)c(OC)c1 | < 0.2 | 51 | 2.2 (≈ 9.6 µM) | 22 (≈ 96 µM) | 41 | 40 | 10 | > 100 | 39
COc1ccc(-c2ccccc2N)c(OC)c1 | > 2 |  | 56 (≈ 244 µM) | > 100 |  |  | > 2 | 56 (≈ 244 µM) | 
COc1ccc(-c2cccc(O)c2)c(OC)c1 | 0.6 |  | 54 (≈ 235 µM) | 28 (≈ 122 µM) |  |  | 0.5 | 50.2 (≈ 218 µM) | 
Nc1cccc(-c2ccccc2O)c1 | 1.7 |  | 49 (≈ 265 µM) | 47 (≈ 254 µM) |  |  | 1 | 28 (≈ 151 µM) | 
Nc1cccc(-c2cccc(O)c2)c1 | 0.5 |  | 54 (≈ 292 µM) | 50.1 (≈ 270 µM) |  |  | 0.9 | 99 (≈ 534 µM) | 
Oc1ccccc1-c1ccccc1 [2-PHENYLPHENOL] | 0.6 |  | 55 (≈ 323 µM) | 31.4 (≈ 184 µM) |  |  | 0.6 | 51 (≈ 300 µM) | 
Oc1cccc(-c2cccc(O)c2)c1 | 1.3 | 50 | 2.5 (≈ 13.4 µM) | 68 (≈ 365 µM) | 5 | 29 | 28 | 51.6 (≈ 277 µM) | 16
Nc1ccc(-c2cccc(O)c2)cc1 | < 0.6 |  | 49.3 (≈ 266 µM) | 55 (≈ 297 µM) |  |  | 1.1 | > 100 | 
Nc1ccccc1-c1ccc(O)cc1 | 1.1 |  | 51 (≈ 275 µM) | 50 (≈ 270 µM) |  |  | 1 | 44.3 (≈ 239 µM) | 
COc1ccc(-c2cccc(O)c2)cc1 | 0.3 |  | 72 (≈ 360 µM) | 14.6 (≈ 72.9 µM) |  |  | 0.2 | 48 (≈ 240 µM) | 
COc1ccc(-c2ccccc2O)cc1 | 1 |  | 47 (≈ 235 µM) | 44 (≈ 220 µM) |  |  | 0.9 | 42 (≈ 210 µM) | 
Oc1cccc(-c2ccccc2)c1 | 0.9 |  | 28 (≈ 165 µM) | 25 (≈ 147 µM) |  |  | 0.9 | 27.4 (≈ 161 µM) | 
COc1ccc(-c2ccc(O)cc2)cc1 | < 0.1 |  | > 100 | 2 (≈ 9.99 µM) |  |  | < 0.1 | 53 (≈ 265 µM) | 
Nc1ccccc1-c1ccccc1O | 1 |  | 44 (≈ 238 µM) | 54.1 (≈ 292 µM) |  |  | 1.2 | 56 (≈ 302 µM) | 
